The text below walks through data of patent publication US20060088471A1, “Compounds for enzyme inhibition” (Proteolix, Inc., priority 2004, published 2006).

Usually IC50 stands for the point on the concentration scale where inhibition reaches its midpoint.

The target in test [1] is purified human 20S proteasome (Homo sapiens, UniProt P28074). The test can be described thus: Binding to the proteasome via fluorescence polarization. The conditions noted are these: 2 nM inhibitor. On the procedure:
Fluorescence was measured using the excitation wavelength of 485 nm and an emission wavelength of 535 nm.
2 nM of Inhibitor 1 was incubated with a serial dilution of purified human 20S proteasome (from 400 pM to 40 nM) in a 20 mM Tris, pH 8.0, 0.5 mM EDTA, 0.03% SDS buffer and was allowed to bind to the proteasome during an incubation at room temperature as shown in FIG. 2. Fluorescence polarization was measured by exciting the samples at 485 nm and detecting the emitted fluorescence at 535 nm in a microwell plate in a fluorimeter capable of measuring fluorescence polarization (Tecan GENios Pro). […] When the concentration of human 20S was low (free Inhibitor 1), the mP was about 40 millipolarization units (mP). The fluorescence polarization at high concentrations of human 20S (bound Inhibitor 1) was about 110 mP.
In general terms: Fluorescence polarisation rises when a labelled molecule tumbles more slowly, as on binding a larger partner.

For test [2], the system named is chymotryptic-like activity of the proteasome in 8226 cells. The test can be described thus: Cell chymotryptic activity in 8226 cells. The format is cell-based, human. The conditions noted are these: 1 hr. On the procedure: (§1) The ability of Inhibitor 1 to inhibit the proteolytic activity of the human 20S proteasome (hu20S) both in vitro and in cells was tested using the fluorescent substrate for the chymotryptic-like activity of the proteasome, Suc-LLVY-AMC as shown in FIG. 1 and Table 1. Fluorescence was measured using the excitation wavelength of 340 nm and an emission wavelength of 465 nm. […] The assay was carried out in 20 mM Tris, pH 8.0, 0.5 mM EDTA, 0.03% SDS buffer with 5% DMSO.

Test [3] addresses human 20S proteasome (hu20S) (Homo sapiens, UniProt P28074). Description: Human 20S chymotryptic activity, Suc-LLVY-AMC cleavage. The format is biochemical. The conditions noted are these: for Human 20S Chymotryptic Activity kinact./Ki: 10 μM Suc-LLVY-AMC, 1 nM hu20S, 20 mM Tris pH 8.0, 0.5 mM EDTA, 0.03% SDS, 5% DMSO; for IC50 / kinact/KI: Suc-LLVY-AMC substrate; for IC50: read-out: Human 20S Chymotryptic Activity Vf IC50; for kinact/KI: read-out: Human 20S Chymotryptic Activity kobs/[I]. How it is done: Proteasome activity was measured via LLVY-AMC cleavage. Fluorescence was measured using the excitation wavelength of 340 nm and an emission wavelength of 465 nm. The assay was carried out in 20 mM Tris, pH 8.0, 0.5 mM EDTA, 0.03% SDS buffer with 5% DMSO.
as §1

A further test relates to 8226 cells. The test can be described thus: Cell viability, 8226. The format is cell-based. The conditions noted are these: 24 hr.
In a further test the test system is p53 levels. The conditions noted are these: epoxomicin treatment; cited from earlier work.
In the next test the test system is HT29 cells. The test can be described thus: Cell viability, HT29. The format is cell-based. The conditions noted are these: Homo sapiens, HT-29, 72 hr.
The target of test [4] is T1, chymotryptic-like activity of the proteasome in HT29 cells (Homo sapiens, UniProt P28074).
T1 construct: endogenous in cells; host or cells: HT29 cells
The test can be described thus: Cell chymotryptic activity in HT29 cells. The format is cell-based. The conditions noted are these: 4 hr. On the procedure: as §1

For test [5], the target named is β5 subunit of human 20S or whole blood lysate (Homo sapiens, UniProt P28074). Description: Streptavidin gel shift assay compared with chymotryptic substrate cleavage assay. The format is biochemical. The conditions noted are these: probe Inhibitor 3.
Method: Human 20S (50 nM) or whole blood lysate (100 mg/mL) was pretreated with either DMSO or Inhibitor 4 (200 nM) for 1 h. Inhibitor 3 (1 μM) was then added. After 1 h, unbound Inhibitor 3 was removed using a spin desalting column and the resulting solution was diluted (1:10) in 1% SDS and heated at 90° C. to denature the proteins. The solution was cooled to room temperature and streptavidin (±1 μg/15 μL) was added. The inhibitor/streptavidin solution was then added to NuPAGE sample buffer at room temperature (not boiled). The sample was then loaded on NuPAGE gel and run at 150 V in a refrigerator at approximately 4° C.

On to `CC(C)C[C@H](NC(=O)[C@H](CCc1ccccc1)NC(=O)c1ccc(C2=C3C=CC(O)C=C3Oc3cc(O)ccc32)c(C(=O)O)c1)C(=O)N[C@@H](Cc1ccccc1)C(=O)N[C@@H](CC(C)C)C(=O)[C@@]1(C)CO1` (single isomer, unassigned) [Inhibitor 1], for which the “Fluorescence polarization, bound Inhibitor 1” value in test [1] (high concentrations of human 20S) is given as “about 110 mP”. Moreover, in test [1] (low concentration of human 20S), the “Fluorescence polarization, free Inhibitor 1” value is listed as “about 40 mP”. Also, in test [2], 340 nM corresponded to half-maximal inhibition (IC50). Moreover, in test [3], the “Human 20S Chymotryptic Activity kinact./Ki” value is reported as 27,000 M^-1sec^-1, the IC50 stood at 9.4 nM and the kinact/KI was 23000 M⁻¹ s⁻¹. Besides, in the test with 8226 cells, the IC50 was determined as 191 nM.

`CC[C@H](C)[C@H](NC(=O)[C@H]([C@@H](C)CC)N(C)C(C)=O)C(=O)N[C@H](C(=O)N[C@@H](CC(C)C)C(=O)[C@@]1(C)CO1)[C@@H](C)O` [epoxomicin]: the p53 levels stabilized result in the test on p53 levels is given as “over 50 fold”.

`CC(=O)N[C@@H](CCc1ccccc1)C(=O)N[C@@H](CC(C)C)C(=O)N[C@@H](Cc1ccccc1)C(=O)N[C@@H](CC(C)C)C(=O)[C@@]1(C)CO1` [YU101]: the IC50 in test [2] stood at 7.3 nM; in test [3], 2 nM; in the test on HT29 cells, 6.8 nM; in test [4] it was 3.3 nM; with 8226 cells, 5 nM. In addition, in test [3], the “Human 20S Chymotryptic Activity kinact./Ki” value is 105,000 M^-1sec^-1. Further, the kinact/KI in test [3] is 93500 M⁻¹ s⁻¹.

Take `CC(C)C[C@H](NC(=O)[C@H](CCc1ccccc1)NC(=O)CN1CCOCC1)C(=O)N[C@@H](Cc1ccccc1)C(=O)N[C@@H](CC(C)C)C(=O)[C@@]1(C)CO1` [Inhibitor 4]: the “Dose response: gel shift assay versus chymotryptic substrate cleavage assay” value in test [5] is on record as “comparable IC50 values”.
